According to publication doi:10.1101/208439v1 (biorxiv, 2017):
Where two headings read alike, the source gives them in different places.

Legend:
NSD1 = biological target: T1, NSD1 (Homo sapiens, UniProt Q96L73); assay: HotSpot [3H]SAM filter-binding methyltransferase assay; assay type: biochemical; conditions: nucleosomes, […] SAM, pH […] MgCl2, […] DTT, […] °C, single experiment
T1 construct: residues 1538-2696, N-terminal His tag, insect cell/baculovirus
T1 sequence (Q96L73 1538-2696): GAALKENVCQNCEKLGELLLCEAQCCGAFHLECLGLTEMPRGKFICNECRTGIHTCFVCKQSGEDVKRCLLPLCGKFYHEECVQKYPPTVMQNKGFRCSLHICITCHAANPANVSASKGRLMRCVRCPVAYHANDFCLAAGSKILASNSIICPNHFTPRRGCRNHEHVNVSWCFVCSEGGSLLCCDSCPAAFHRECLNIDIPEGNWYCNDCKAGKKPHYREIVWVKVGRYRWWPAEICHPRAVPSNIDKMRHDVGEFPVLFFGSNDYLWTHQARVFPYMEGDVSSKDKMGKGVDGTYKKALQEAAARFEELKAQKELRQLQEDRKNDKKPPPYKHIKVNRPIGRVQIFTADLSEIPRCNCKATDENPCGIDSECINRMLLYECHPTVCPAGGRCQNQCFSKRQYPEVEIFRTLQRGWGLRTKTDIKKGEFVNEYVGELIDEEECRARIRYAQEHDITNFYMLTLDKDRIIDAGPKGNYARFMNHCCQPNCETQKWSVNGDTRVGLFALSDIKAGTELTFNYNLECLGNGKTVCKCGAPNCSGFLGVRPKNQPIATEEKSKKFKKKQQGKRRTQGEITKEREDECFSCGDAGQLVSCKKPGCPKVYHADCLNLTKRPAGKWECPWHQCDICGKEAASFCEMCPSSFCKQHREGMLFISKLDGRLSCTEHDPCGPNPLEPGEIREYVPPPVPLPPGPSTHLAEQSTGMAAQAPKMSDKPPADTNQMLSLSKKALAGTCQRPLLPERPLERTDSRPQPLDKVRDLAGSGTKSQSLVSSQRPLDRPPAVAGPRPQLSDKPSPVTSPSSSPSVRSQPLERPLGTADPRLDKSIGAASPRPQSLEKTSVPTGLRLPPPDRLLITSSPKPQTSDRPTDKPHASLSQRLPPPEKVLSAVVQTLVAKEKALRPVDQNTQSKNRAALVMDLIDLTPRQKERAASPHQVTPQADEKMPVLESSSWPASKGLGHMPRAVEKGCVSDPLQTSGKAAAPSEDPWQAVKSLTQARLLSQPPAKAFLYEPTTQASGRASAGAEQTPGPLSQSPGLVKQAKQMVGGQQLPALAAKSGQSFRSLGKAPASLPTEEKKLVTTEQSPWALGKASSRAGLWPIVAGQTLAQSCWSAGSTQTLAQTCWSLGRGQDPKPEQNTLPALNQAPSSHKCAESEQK

NSD2 = biological target: T2, NSD2 (Homo sapiens, UniProt O96028, E1099K); assay: as above; assay type: biochemical
T2 construct: full length (residues 2-1365), N-terminal His tag, insect cell/baculovirus
T2 sequence (O96028 2-1365 E1099K): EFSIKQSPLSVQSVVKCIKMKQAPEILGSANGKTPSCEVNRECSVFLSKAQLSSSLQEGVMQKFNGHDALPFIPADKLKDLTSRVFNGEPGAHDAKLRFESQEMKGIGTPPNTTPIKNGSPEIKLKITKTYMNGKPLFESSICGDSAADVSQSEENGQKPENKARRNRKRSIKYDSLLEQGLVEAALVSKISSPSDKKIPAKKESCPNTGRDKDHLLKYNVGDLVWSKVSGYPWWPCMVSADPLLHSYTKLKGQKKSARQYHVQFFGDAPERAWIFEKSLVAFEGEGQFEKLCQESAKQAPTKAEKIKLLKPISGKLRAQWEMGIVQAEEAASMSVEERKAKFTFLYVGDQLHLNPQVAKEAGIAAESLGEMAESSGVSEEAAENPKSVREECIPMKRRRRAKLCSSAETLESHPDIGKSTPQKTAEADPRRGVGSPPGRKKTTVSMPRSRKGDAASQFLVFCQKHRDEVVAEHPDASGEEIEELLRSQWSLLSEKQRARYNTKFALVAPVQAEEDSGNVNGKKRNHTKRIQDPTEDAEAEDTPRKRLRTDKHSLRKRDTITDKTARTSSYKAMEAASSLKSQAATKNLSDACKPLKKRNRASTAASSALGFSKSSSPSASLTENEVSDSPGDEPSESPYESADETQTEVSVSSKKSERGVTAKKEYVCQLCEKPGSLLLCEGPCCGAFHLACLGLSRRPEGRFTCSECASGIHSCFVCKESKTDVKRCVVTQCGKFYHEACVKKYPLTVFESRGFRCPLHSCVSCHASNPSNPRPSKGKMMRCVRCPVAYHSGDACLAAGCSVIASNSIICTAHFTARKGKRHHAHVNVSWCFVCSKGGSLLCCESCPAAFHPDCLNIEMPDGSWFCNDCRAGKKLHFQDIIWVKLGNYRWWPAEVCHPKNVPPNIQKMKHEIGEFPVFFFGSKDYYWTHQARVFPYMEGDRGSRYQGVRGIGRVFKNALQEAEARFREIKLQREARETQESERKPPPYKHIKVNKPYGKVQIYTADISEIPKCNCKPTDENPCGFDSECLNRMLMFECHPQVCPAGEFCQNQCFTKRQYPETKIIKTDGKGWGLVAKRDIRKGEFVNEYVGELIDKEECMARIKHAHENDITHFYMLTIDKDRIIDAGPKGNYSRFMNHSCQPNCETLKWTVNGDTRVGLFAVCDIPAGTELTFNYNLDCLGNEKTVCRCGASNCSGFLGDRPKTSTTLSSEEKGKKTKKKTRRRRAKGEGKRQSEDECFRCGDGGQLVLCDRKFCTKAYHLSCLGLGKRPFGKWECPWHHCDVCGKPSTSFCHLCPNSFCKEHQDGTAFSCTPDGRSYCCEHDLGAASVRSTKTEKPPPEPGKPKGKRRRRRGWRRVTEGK

DNMT3a = DNMT3a (Homo sapiens, UniProt Q9Y6K1); assay: biochemical
[1] = nucleosomes, […] SAM, pH […] MgCl2, […] DTT, […] °C, single experiment

Sequence of DNMT3a (Q9Y6K1 whole entry, looked up): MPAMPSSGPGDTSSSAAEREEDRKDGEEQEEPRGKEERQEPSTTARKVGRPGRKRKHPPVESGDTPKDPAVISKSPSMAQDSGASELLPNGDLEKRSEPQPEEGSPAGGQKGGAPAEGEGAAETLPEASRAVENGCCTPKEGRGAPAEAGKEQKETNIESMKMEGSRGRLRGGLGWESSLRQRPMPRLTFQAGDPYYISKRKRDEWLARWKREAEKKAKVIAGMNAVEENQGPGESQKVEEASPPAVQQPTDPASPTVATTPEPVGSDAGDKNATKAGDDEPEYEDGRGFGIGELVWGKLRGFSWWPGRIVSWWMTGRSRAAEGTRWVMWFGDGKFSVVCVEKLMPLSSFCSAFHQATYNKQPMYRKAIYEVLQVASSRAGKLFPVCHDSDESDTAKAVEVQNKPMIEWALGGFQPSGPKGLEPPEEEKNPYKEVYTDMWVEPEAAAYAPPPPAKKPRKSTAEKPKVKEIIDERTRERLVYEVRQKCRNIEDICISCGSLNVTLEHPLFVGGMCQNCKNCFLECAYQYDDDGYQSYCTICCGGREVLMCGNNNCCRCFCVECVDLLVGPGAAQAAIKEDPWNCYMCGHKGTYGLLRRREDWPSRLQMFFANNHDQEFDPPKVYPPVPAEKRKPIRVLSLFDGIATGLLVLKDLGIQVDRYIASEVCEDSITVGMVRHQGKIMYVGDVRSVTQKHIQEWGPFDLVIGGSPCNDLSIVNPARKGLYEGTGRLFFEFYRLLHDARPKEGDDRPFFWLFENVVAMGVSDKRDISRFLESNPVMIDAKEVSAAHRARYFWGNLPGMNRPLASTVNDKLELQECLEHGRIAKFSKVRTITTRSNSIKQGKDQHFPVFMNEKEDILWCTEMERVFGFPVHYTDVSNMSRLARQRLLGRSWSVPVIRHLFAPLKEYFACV

An IC50 (NSD1) of 2400 nM, an IC50 (NSD2) of 2200 nM and an IC50 (DNMT3a) of 18000 nM were found for `CC1(C)CCC(CN2CCN(c3ccc(C(=O)NS(=O)(=O)c4ccc(NCC5CCOCC5)c([N+](=O)[O-])c4)c(Oc4cnc5[nH]ccc5c4)c3)CC2)=C(c2ccc(Cl)cc2)C1` [ABT-199] in this work.

An IC50 (NSD1) of 110 nM, an IC50 (NSD2; [1]) of 110 nM and an IC50 (DNMT3a; read-out: DA3003-1 IC50, inhibitor) of 1100 nM were found for `O=C1C(Cl)=C(NCCN2CCOCC2)C(=O)c2ncccc21` [DA3003-1] in this work.

An IC50 (NSD1) of 12000 nM, an IC50 (NSD2; [1]) of 7200 nM and an IC50 (DNMT3a) of 16000 nM were found for `COc1cccc(-n2nc(C(=O)O)cc2-c2ccc(C3CCCCC3)c(Cl)c2)c1` [TC LPA5 4] in this work.
